Key:
Type in all cases: biochemical
PI3K alfa = molecular target: T1, PI3K alfa (Homo sapiens, UniProt P42336); assay: PI3 kinase assay (Kinase-Glo luminescence), PI3K alfa; conditions: Enzymatic Data; read-out: PI3K alfa IC50 [umol]
T1 construct: for the p110-a subunit (with a deletion of the first 20 amino acids); His tag (C); made in house; host or cells: baculovirus; Tn5 (Trichoplusia ni) or TiniPro insect cells
Method in brief: (§1)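 Recombinant PI3K constructs (alfa 10 nM, delta 10 nM, gamma 150 nM) with 1 μM ATP and 10 μg/mL phosphatidylinositol in Tris pH 7.5, MgCl2, NaCl, CHAPS, DTT; 60 min (alfa, delta) or 120 min (gamma) at room temperature. ATP depletion read by Kinase-Glo luminescence; IC50 from 4-parameter logistic fit over 8 concentrations.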

PI3K beta = molecular target: T2, PI3K beta (Homo sapiens, UniProt P42338); assay: PI3 kinase assay (Kinase-Glo luminescence), PI3K beta; conditions: Enzymatic Data; read-out: PI3K beta IC50 [umol]
T2 construct: for the full-length p110-b subunit are generated and fused by overlapping PCR; His tag (C); made in house; host or cells: baculovirus; Tn5 (Trichoplusia ni) or TiniPro insect cells
T2 sequence (P42338 with tags, fused parts or gaps limits assumed): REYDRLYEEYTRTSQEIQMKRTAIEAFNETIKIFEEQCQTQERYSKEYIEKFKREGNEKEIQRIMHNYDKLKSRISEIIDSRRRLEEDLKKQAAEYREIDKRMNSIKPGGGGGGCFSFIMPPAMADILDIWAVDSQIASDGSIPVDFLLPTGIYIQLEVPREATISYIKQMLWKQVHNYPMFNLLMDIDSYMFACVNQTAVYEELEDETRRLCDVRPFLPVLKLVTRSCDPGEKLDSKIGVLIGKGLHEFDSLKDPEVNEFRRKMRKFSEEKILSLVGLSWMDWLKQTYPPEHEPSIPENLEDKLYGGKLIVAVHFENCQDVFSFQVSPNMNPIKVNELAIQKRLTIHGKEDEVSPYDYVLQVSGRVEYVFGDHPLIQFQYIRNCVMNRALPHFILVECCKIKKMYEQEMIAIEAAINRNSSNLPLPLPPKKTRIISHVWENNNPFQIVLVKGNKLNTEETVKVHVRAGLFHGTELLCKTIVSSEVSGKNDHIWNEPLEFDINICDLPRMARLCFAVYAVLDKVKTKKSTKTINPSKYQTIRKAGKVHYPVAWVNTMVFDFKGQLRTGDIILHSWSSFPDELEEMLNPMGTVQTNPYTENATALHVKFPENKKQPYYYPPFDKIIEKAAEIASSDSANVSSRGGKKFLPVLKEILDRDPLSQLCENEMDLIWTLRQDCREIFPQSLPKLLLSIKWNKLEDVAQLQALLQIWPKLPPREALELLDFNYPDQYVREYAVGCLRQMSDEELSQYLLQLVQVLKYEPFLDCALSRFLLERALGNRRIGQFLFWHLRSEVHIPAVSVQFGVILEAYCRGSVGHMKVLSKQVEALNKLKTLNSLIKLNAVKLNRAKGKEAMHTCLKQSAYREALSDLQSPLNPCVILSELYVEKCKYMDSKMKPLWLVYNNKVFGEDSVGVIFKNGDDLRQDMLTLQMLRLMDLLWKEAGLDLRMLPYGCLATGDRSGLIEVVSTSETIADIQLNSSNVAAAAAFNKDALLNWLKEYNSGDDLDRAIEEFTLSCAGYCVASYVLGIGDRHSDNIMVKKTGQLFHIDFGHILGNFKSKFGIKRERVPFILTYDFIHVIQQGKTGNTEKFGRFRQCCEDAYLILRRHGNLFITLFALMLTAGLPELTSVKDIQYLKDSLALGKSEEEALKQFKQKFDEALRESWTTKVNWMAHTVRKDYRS
Method in brief: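 PI3Kβ (25 nM, BV-949) with 10 μg/mL phosphatidylinositol in Tris pH 7.5/MgCl2/NaCl/CHAPS/DTT buffer; reaction started with 1 μM ATP, 60 min at room temperature. ATP depletion read by Kinase-Glo luminescence; 8-point dilutions, IC50 by four-parameter logistic fit.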

PI3K delta = molecular target: T3, PI3K delta (Homo sapiens, UniProt O00329); assay: PI3 kinase assay (Kinase-Glo luminescence), PI3K delta; conditions: Enzymatic Data; read-out: PI3K delta IC50 [umol]
T3 construct: for the full-length p110-d subunit are generated and fused by overlapping PCR; His tag (C); made in house; host or cells: baculovirus; Tn5 (Trichoplusia ni) or TiniPro insect cells
T3 sequence (O00329 with tags, fused parts or gaps limits assumed): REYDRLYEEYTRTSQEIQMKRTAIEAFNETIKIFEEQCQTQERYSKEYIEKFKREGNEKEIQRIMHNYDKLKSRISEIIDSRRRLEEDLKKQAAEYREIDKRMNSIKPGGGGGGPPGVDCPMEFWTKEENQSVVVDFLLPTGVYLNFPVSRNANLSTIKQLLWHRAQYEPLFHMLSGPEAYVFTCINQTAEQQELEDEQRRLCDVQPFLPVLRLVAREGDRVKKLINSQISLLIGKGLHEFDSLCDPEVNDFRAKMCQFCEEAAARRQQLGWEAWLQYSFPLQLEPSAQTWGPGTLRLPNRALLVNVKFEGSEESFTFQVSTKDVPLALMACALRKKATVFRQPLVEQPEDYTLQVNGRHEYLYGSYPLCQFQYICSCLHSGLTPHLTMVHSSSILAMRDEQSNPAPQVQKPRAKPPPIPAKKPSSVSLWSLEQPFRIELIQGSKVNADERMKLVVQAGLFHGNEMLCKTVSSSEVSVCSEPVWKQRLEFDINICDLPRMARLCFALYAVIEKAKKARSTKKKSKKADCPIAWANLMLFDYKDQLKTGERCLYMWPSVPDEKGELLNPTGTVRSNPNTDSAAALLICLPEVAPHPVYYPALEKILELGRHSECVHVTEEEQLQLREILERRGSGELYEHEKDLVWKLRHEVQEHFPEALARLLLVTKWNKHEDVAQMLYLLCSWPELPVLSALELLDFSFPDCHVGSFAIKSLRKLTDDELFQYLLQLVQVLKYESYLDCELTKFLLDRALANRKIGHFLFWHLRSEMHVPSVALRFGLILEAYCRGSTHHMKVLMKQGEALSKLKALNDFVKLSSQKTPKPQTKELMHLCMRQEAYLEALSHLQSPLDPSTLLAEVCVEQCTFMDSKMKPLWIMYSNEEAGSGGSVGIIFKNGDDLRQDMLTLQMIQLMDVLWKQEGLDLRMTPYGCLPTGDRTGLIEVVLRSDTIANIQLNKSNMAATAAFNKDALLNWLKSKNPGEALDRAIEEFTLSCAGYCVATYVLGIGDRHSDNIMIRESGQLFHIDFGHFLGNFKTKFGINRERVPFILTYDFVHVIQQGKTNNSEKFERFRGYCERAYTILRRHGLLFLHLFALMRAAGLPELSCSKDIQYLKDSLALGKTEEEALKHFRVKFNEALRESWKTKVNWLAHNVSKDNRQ
Method in brief: as §1

PI3K gamma = molecular target: T4, PI3K gamma (Homo sapiens, UniProt P48736); assay: PI3 kinase assay (Kinase-Glo luminescence), PI3K gamma; conditions: Enzymatic Data; read-out: PI3K gamma IC50 [umol]
T4 construct: PI3Kγ BV-950 p110g(D144aa)-C-Term His Tag; His tag (C); made in house; host or cells: construct from the Roger Williams lab (MRC LMB) in pVL1393; baculovirus; Tn5 (Trichoplusia ni) or TiniPro insect cells
T4 sequence (P48736 144-1102 limits assumed): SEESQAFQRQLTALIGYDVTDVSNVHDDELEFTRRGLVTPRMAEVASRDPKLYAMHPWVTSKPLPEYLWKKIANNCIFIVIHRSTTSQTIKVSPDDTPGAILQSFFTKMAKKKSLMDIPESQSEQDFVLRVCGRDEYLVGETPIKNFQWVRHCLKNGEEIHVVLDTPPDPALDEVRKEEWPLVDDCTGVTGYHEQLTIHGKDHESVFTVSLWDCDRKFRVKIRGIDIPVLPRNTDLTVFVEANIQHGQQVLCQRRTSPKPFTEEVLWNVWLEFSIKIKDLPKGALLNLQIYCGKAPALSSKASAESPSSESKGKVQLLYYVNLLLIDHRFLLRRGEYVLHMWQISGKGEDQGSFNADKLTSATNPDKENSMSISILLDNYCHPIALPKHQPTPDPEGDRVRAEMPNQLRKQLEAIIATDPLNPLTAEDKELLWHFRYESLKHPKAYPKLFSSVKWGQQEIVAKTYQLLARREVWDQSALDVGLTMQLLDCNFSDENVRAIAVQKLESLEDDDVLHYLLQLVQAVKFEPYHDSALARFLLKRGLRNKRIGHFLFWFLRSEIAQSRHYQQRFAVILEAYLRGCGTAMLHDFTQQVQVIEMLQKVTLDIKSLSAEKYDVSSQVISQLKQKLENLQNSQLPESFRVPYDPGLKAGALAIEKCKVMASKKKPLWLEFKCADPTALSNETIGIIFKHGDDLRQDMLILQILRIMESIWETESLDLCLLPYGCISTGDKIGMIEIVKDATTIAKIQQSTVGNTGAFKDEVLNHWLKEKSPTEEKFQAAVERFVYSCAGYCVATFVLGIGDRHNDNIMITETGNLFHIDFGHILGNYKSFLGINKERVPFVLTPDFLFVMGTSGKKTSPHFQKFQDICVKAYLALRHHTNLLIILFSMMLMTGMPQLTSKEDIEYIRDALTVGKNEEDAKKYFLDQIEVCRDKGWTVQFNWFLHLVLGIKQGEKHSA
Method in brief: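 Percent inhibition at eight concentrations (typically 10 to 0.003 […]) fitted to a four-parameter logistic model to give IC50. Reaction initiated with ATP; final ATP 1 μM and phosphatidylinositol 10 μg/mL; ATP consumption read by Kinase-Glo luminescence.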

T1 sequence (P42336 with tags, fused parts or gaps limits assumed): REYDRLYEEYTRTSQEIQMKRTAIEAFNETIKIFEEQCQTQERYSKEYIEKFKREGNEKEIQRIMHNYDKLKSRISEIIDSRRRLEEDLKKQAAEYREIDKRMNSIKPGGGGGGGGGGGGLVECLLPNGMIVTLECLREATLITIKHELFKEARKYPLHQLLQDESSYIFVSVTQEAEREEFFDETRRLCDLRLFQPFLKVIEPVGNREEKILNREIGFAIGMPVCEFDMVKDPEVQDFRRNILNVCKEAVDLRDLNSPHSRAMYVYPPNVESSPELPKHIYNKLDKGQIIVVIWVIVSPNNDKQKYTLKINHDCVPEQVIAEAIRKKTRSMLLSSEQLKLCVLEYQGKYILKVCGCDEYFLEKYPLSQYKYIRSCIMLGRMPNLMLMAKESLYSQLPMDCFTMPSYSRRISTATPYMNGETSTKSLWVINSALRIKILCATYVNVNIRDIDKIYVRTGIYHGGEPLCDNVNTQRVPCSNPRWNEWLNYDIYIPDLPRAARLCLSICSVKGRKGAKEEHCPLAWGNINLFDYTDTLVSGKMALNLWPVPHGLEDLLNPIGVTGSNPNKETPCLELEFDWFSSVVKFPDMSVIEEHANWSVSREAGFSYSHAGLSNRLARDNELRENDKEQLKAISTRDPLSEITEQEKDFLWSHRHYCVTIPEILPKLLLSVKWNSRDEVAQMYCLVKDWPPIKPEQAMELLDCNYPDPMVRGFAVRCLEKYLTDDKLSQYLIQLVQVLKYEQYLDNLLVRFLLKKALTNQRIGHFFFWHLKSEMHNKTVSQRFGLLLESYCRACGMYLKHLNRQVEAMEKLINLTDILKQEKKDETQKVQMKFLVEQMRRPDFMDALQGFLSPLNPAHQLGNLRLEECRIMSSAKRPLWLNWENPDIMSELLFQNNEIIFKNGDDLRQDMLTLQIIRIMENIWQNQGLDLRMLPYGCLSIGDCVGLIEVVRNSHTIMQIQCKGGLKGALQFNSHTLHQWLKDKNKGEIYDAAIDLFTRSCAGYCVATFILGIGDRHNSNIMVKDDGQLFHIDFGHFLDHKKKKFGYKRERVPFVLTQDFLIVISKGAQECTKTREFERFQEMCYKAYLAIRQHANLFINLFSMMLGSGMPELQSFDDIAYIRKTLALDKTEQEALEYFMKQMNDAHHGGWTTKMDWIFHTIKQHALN

Row | SMILES | IC50 (PI3K alfa) [µM] | IC50 (PI3K beta) [µM] | IC50 (PI3K delta) [µM] | IC50 (PI3K gamma) [µM]
1 | Nc1ncc(-c2ccc3ncc(-c4ccc(OCCCc5ccncc5)cc4)n3n2)cc1C(F)(F)F [Example 174, 5-{3-[4-(3-Pyridin-4-yl-propoxy)-phenyl]-imidazo [1,2-b]pyridazin-6-yl}-3-trifluoro-methyl-pyridin-2-ylamine] | 0.106 | 2.06 | 0.224 | 2.07
2 | CC(C)S(=O)(=O)c1ccc(-c2cnc3ccc(-c4cnc(N)c(C(F)(F)F)c4)nn23)cc1 [Example 72, 5-{3-[4-(Propane-2-sulfonyl)-phenyl]-imidazo[1,2-b]pyridazin-6-yl}-3-trifluoro-methyl-pyridin-2-lamine] | 0.028 | 0.233 | 0.056 | 2.02
3 | COc1ccc(-c2ccc3ncc(-c4cnc(N)cn4)n3n2)cc1OC [Example 38, 5-[6-(3,4-Dimethoxy-phenyl)-imidazo [1,2-b]pyridazin-3-yl]-pyrazin-2-ylamine] | 0.092 | 0.226 | 0.121 | 1.69
4 | CC(C)(C)OC(=O)NCCCOc1ccc(-c2cnc3ccc(-c4cnc(N)c(C(F)(F)F)c4)nn23)cc1OC(F)(F)F [Example 40, (3-{4-[6-(6-Amino-5-trifluoro-methyl-pyridin-3-yl)-imidazo [1,2-b]pyridazin-3-yl]-2-trifluoro-methoxy-phenoxy}-propyl)-carbamic acid tert-butylester] | 6.9 | > 9.1 | > 9.1 | > 9.1
5 | COc1cc(-c2ccc3ncc(-c4cnc(N)c(C(F)(F)F)c4)n3n2)ccc1OCCCNC(=O)C1CC1 [Example 65] | 0.026 | 0.505 | 0.345 | 0.483
6 | COc1cc(-c2ccc3ncc(-c4cnc(N)c(C(F)(F)F)c4)n3n2)ccc1OCCN [Example 59, 5-{6-[4-(2-Amino-ethoxy)-3-methoxy-phenyl]-imidazo [1,2-b]pyridazin-3-yl}-3-trifluoro-methyl-pyridin-2-ylamine] | 0.033 | 0.024 | 0.06 | 0.401
7 | Nc1ccc(-c2cnc3ccc(-c4ccc(OCCCNC(=O)C5CC5)cc4)nn23)cn1 [Example 129, Cyclo-propane-carboxylic acid (3-{4-[3-(6-amino-pyridin-3-yl)-imidazo [1,2-b]pyridazin-6-yl]-phenoxy}-propyl)-amide] | 0.223 | 4.15 | 0.676 | 2.02
8 | Nc1ncc(-c2cnc3ccc(-c4ccc(OCCCN5CCNC5=O)cc4)nn23)cc1C(F)(F)F [Example 163, 1-(3-{4-[3-(6-Amino-5-trifluoro-methyl-pyridin-3-yl)-imidazo [1,2-b]pyridazin-6-yl]-phenoxy}-propyl)-imidazolidin-2-one] | 0.069 | 0.908 | 0.086 | 1.89
9 | Nc1ncc(-c2ccc3ncc(-c4ccc(C(=O)N5CCN(Cc6ccc(F)cc6)CC5)c(F)c4)n3n2)cc1C(F)(F)F [Example 114, {4-[6-(6-Amino-5-trifluoromethyl-pyridin-3-yl)-imidazo [1,2-b]pyridazin-3-yl]-2-fluoro-phenyl}-[4-(4-fluoro-benzyl)-piperazin-1-yl]-methanone] | 0.14 | 4.07 | 0.829 | 1.44
10 | O=C1CCCN1CCOc1ccc(-c2ccc3ncc(-c4cnc5[nH]ccc5c4)n3n2)cc1F [Example 96, 1-(2-{2-Fluoro-4-[3-(1H-pyrrolo [2,3-b]pyridin-5-yl)-imidazo [1,2-b]pyridazin-6-yl]-phenoxy)-ethyl)-pyrrolidin-2-one] | 0.501 | 4.71 | 1.09 | 7.66
11 | Nc1ncc(-c2ccc3ncc(-c4ccc(C(=O)N5CCN(Cc6ccccn6)CC5)cc4)n3n2)cc1C(F)(F)F [Example 85, {4-[6-(6-Amino-5-trifluoromethyl-pyridin-3-yl)-imidazo[1,2-b]pyridazin-3-yl]-phenyl}-(4-pyridin-2-ylmethyl-piperazin-1-yl)-methanone] | 0.019 | 0.34 | 0.015 | 0.129
12 | CN(C)CCN1CCN(C(=O)c2ccc(-c3cnc4ccc(-c5cnc(N)c(C(F)(F)F)c5)nn34)cc2F)CC1 [Example 107, {4-[6-(6-Amino-5-trifluoro-methyl-pyridin-3-yl)-imidazo [1,2-b]pyridazin-3-yl]-2-fluoro-phenyl}-[4-(2-dimethyl-amino-ethyl)-piperazin-1-yl]-methanone] | 0.026 | 0.497 | 0.03 | 0.827
13 | CC(C)(C)OC(=O)NCCCOc1ccc(-c2ccc3ncc(-c4cnc(N)c(C(F)(F)F)c4)n3n2)cn1 [Example 175, (3-{5-[3-(G-Amino-5-trifluoro-methyl-pyridin-3-yl)-imidazo [1,2-b]pyridazin-6-yl]-pyridin-2-yloxy}-propyl)-carbamic acid tert-butyl ester] | 0.119 | 7.1 | 0.421 | > 9.1
14 | CC(=O)NCCOc1ccc(-c2ccc3ncc(-c4cnc(N)c(C(F)(F)F)c4)n3n2)cc1 [Example 75, N-(2-{4-[3-(6-Amino-5-trifluoro-methyl-pyridin-3-yl)-imidazo [1,2-b]pyridazin-6-yl]-phenoxy}-ethyl)-acetamide] | 0.075 | 0.651 | 0.135 | 3.09
15 | CNS(=O)(=O)c1ccc(-c2cnc3ccc(-c4cnc(N)c(C(F)(F)F)c4)nn23)cc1 [Example 35, 4-[6-(6-Amino-5-trifluoro-methyl-pyridin-3-yl)-imidazo [1,2-b]pyridazin-3-yl]-N-methyl-benzene-sulfon-amide] | 0.122 | 0.186 | 0.171 | > 9.1
16 | Nc1ncc(-c2cnc3ccc(-c4ccc(OCCCNC(=O)C5CC5)cc4)nn23)cc1C(F)(F)F [Example 58, Cyclopropanecarboxylic acid (3-{4-[3-(6-amino-5-trifluoromethyl-pyridin-3-yl)-imidazo[1,2-b]pyridazin-6-yl]-phenoxy}-propyl)-amide] | 0.087 | > 9.1 | 2.15 | > 9.1
17 | Nc1ncc(-c2ccc3ncc(-c4ccc(C(=O)N5CCN(Cc6cccnc6)CC5)c(F)c4)n3n2)cc1C(F)(F)F [Example 112, {4-[6-(6-Amino-5-trifluoro-methyl-pyridin-3-yl)-imidazo [1,2-b]pyridazin-3-yl]-2-fluoro-phenyl}-(4-pyridin-3-ylmethyl-piperazin-1-yl)-methanone] | 0.012 | 0.623 | 0.014 | 0.956
18 | CC(C)C(=O)NCCCOc1ccc(-c2ccc3ncc(-c4cnc(N)c(C(F)(F)F)c4)n3n2)cc1OC(F)(F)F [Example 64, N-(3-{4-[3-(6-Amino-5-trifluoro-methyl-pyridin-3-yl)-imidazo [1,2-b]pyridazin-6-yl]-2-trifluoro-methoxy-phenoxy}-propyl)-iso-butyramide] | 0.562 | > 9.1 | 6.81 | 0.316
19 | COc1cc(-c2cnc3ccc(-c4cnc(N)c(C(F)(F)F)c4)nn23)ccc1C(=O)NCCN1CCOCC1 [Example 115, 4-[6-(6-Amino-5-trifluoro-methyl-pyridin-3-yl)-imidazo [1,2-b]pyridazin-3-yl]-2-methoxy-N-(2-morpholin-4-yl-ethyl)-benzamide] | 0.009 | 0.078 | 0.022 | 0.397
20 | Nc1ncc(-c2ccc3ncc(-c4ccc5c(cnn5CCCN5CCOCC5)c4)n3n2)cc1C(F)(F)F [Example 140, 5-{3-[1-(3-Morpholin-4-yl-propyl)-1H-indazol-5-yl]-imidazo [1,2-b]pyridazin-6-yl}-3-trifluoro-methyl-pyridin-2-ylamine] | 0.037 | 0.135 | 0.027 | 0.712
21 | COc1cc(-c2ccc3ncc(-c4cnc(N)c(C(F)(F)F)c4)n3n2)ccc1OCCCNC(C)=O [Example 52, N-(3-{4-[3-(6-Amino-5-trifluoro-methyl-pyridin-3-yl)-imidazo [1,2-b]pyridazin-6-yl]-2-methoxy-phenoxy}-propyl)-acetamide] | 0.022 | 0.364 | 0.295 | 2.22
22 | Nc1ccc(-c2cnc3ccc(-c4cnc(N)c(C(F)(F)F)c4)nn23)cn1 [Example 39, 5-{3-(6-Amino-pyridin-3-yl)-imidazo [1,2-b]pyridazin-6-yl]-3-trifluoro-methyl-pyridin-2-ylamine] | 0.054 | 0.019 | 0.04 | 1.29

From patent publication US20100311729A1, “Substituted imidazopyridazines and pyrrolopyrimidines as lipid kinase inhibitors” (priority 2007, published 2010)
